Values joined by “and” are separate entries in the source; they are usually repeats but may differ in a detail not shown here. Identical values can stand only once.
Experiments:
dog eyes with cataracts = experiment: Treatment of cataractous lenses in dogs in vivo; set-up: key to cataract grade before treatment, treatment group / cataract grade after treatment, treatment group: Grade 0: absence of opacification (no cataract); Grade 1: a slight degree of opacification (incipient stage); Grade 2: presence of diffuse opacification involving almost the entire lens (immature stage); Grade 3: presence of extensive, thick opacification involving the entire lens (mature stage)
Description: Preparation of drug-loaded nanoparticles. Lanosterol was loaded into a lipid-polymer hybrid nanoparticle through an adapted nanoprecipitation method^34. In brief, the desired concentration of lanosterol was mixed with polycaprolactone (PCL) polymer dissolved in acetonitrile. Lecithin and 1,2-distearoyl-sn-glycero-3-phosphoethanolamine-N-carboxy(polyethylene glycol) 2000 (DSPE-PEG-COOH) were dissolved in a 4% ethanol aqueous solution at 20% of the PCL polymer weight and heated above 60° C. The lanosterol/PCL solution was then added into the preheated lipid solution under gentle stirring followed by rigorous vortexing for 3 min. The mixture solution was then stirred for 2 h to allow the nanoparticles to form and the acetonitrile to evaporate. Next, the nanoparticle solution was washed three times using an Amicon Ultra-4 centrifugal filter (Millipore) with a molecular weight cut-off of 10 kDa to remove the remaining organic solvent and free molecules. The resulting nanoparticles were then re-suspended in PBS buffer for sub-sequent use. The size, size distribution, and surface zeta potential of the drug-loaded nanoparticles were characterized by dynamic light scattering. The loading yield of lanosterol was quantified by high-performance liquid chromatography.
Treatment of cataractous lenses in dogs. To assess the effect of lanosterol treatment on cataracts in live animals, dogs were pre-medicated with intramuscular injections of acepromaxine and butorphanol. After 20 min, induction of anaesthesia was performed by application of intravenous propofol. Dogs were then immediately intubated and maintained on oxygen and 2% isoflurane at […]. Lanosterol (100 mg)-loaded nanoparticles were initially injected into the vitreous cavity in the test eye using a 28-gauge needle, and then were given every 3 days for the duration of the experiment. Treatment eyes or sham eyes were randomized. […] Degree of cataract severity was assessed by a blinded examiner and scored based on canine cataract stage, shown below^35. Improvements in lens clarity and transparency were quantified. […]

[1] = system: cataract-causing mutant crystallin proteins; experiment: Intracellular aggregation of mutant crystallins in HeLa cells; assay type: cell-based, human; conditions: then 12 h
Description: FIG. 9A, FIG. 9B, and FIG. 9C show inhibition of crystallin mutant aggregation by wild-type LSS and lanosterol in HLEB-3 cells (FIG. 9A) or HeLa cells (FIG. 9B). Cells co-transfected with LSS and crystallin mutant constructs were cultured for 24 h before assaying for aggregates. The rescue experiments were performed by addition of 40 […] μM sterols (lanosterol or cholesterol) to the cell culture medium for 2 h, the sterol medium was then replaced with fresh culture medium and the cells were cultured for a further 12 h. The percentage of cells with crystallin aggregates were calculated from ten randomly selected viewing fields. The values of the wild-type LSS group, mutant group, or mutant plus lanosterol group were calculated. […] After transfection for 4 h and incubation in fresh culture medium for another 24 h, the cells were lysed and centrifuged to separate supernatant and insoluble fractions. LSS and crystallin fusion proteins were detected by antibodies against Flag and GFP, respectively. Red arrows indicate higher crystalline content in the soluble fraction versus in the insoluble fraction in cells containing the WT-LSS.
Cells were transfected with various crystallin constructs for 4 h and cultured for an additional 24 h in fresh culture medium. Then the cells were treated with 10, 20 and 40 μM lanosterol in 1% (HLEB-3 cells) or 2% DMSO (HeLa cells) for 2 h and cultured for another 12 h. Cells treated with 1% (HLEB-3 cells) or 2% DMSO (HeLa cells) were used as the controls. Formation of intracellular aggregates of various crystallin proteins was visualized by fluorescence of GFP (green) and the nuclei were stained with Hoechst 33342 (blue). Typical intracellular aggregates are indicated by arrows.
The impact of LSS and lanosterol on intracellular crystallin aggregation were evaluated in single-blinded observer studies. Experiments have been repeated at least three times. P values were calculated using Student's t-tests. Fluorescence microscopy. […]

## CC(C)=CCC[C@@H](C)[C@H]1CC[C@@]2(C)C3=C(CC[C@]12C)[C@@]1(C)CC[C@H](O)C(C)(C)[C@@H]1CC3 [lanosterol, 3β-Hydroxy-8,24-lanostadiene; 8,24-Lanostadien-3β-ol]
Dog eyes with cataracts; dog study eye, baseline, n=7
  cataract grade before treatment, treatment group: 1 and 2 and 3
Dog eyes with cataracts; dog study eye, intravitreal lanosterol (100 mg)-loaded nanoparticles every 3 days plus 25 mM lanosterol eye drops three times daily, 6 weeks, n=7
  cataract grade after treatment, treatment group: 0 and 1
Dog eyes with cataracts; dogs in vivo, 6 weeks of lanosterol, P<0.009, Wilcoxon Test
  cataract severity / lens clarity: significantly reduced cataract severity and increased lens clarity
[1]; HeLa cells co-transfected with LSS and crystallin mutant, 40 μM sterols 2 h, lanosterol P<1×10^−4, cholesterol P>0.1
  percentage of cells with crystallin aggregates versus control group (rescue): significantly lower
[1]; HeLa cells, 10, 20 and 40 μM lanosterol in 2% DMSO for 2 h, concentration-dependent
  intracellular aggregation caused by cataract-causing mutant crystallin proteins: significantly reduced the intracellular aggregation

From US10471076B2, “Compositions and methods to treat vision disorders” (YouHealth Biotech, Limited, priority 2014, dated 2019)
